In article PMC3017052, “A Novel Peptide Derived from Human Apolipoprotein E Is an Inhibitor of Tumor Growth and Ocular Angiogenesis” (PLoS ONE, 2011):

Key:
HUVEC = format: cell-based, human; settings: 48 h
Protocol: To confirm that apoEdp affects cell survival, cell viability was determined using the cell titer 96®AQuous One solution cell proliferation kit. ApoEdp treatment of HUVECs induced a dose-dependent inhibition of cell viability (Fig. 1A). […] To determine whether apoEdp suppresses tumor growth by directly affecting tumor cells, we performed a cell viability assay using human breast cancer MDA-MB-231 cell line in vitro and cell titer 96®AQuous One solution cell proliferation kit.
Figure 1 ApoEdp affects HUVEC survival but not MDA-MB-231. A. HUVEC: ApoEdp has a significant effect on VEGF-induced HUVEC viability. Cells were treated with apoEdp at the indicated concentrations and incubated with constant 50 ng/mL VEGF for 48 hr. All values were normalized to cell control of no VEGF and no apoEdp. Cell viability values (mean ± SEM) are expressed as % of the value of the VEGF control. B. MDA-MB-231: ApoEdp has no effect on MDA-MB-231viability. ApoEdp has no significant effect on MDA-MB-231 survival. Cells were treated with apoEdp at the indicated concentrations and incubated at 37°C for 2 days. Cell viability values (mean ± SEM) are expressed as % of the value of the control (untreated cells). […]
The effect of apoEdp on ED survival was evaluated. […] Two days later, cell numbers were determined using the CellTiter96 AQueous One solution cell proliferation kit (Promega, Madison, WI).

[1] = test system: VEGF-induced corneal angiogenesis; assay: Rabbit corneal micropocket assay (VEGF-induced angiogenesis); format: in vivo; settings: 160 ng VEGF pellet, topical 1% eye drops 50 µL 5 times per day for 5 days, compared to saline treated eyes
Protocol: To study the in vivo anti-angiogenic effect of apoEdp, we assessed its inhibitory effect on VEGF-induced corneal micro-pocket assay in rabbit eye model. The slow release micropellet (500 µm×500 µm) of 0.4 g of Compritol 888 ATO (Gattefosse) combined with 0.1 g of Squalane oil (Sigma) and 20 mg/mL L-α-phosphatidylcholine containing saline or 160 ng of VEGF were surgically implanted in the corneal micropocket created in the avascular area of rabbit cornea (Fig. 5A–B).
Figure 5 ApoEdp inhibits angiogenesis in rabbit corneal micropocket assay. Slow-releasing micro pellets (500 µm×500 µm) containing 160 ng of VEGF were corneally implanted in New Zealand white rabbits (1.5–2.5 kg). […] (A)The area of neovascular response, vessel length, and clock hours of new blood vessel of rabbits in each group were calculated according to the formula Area (mm^2) = C/12×3.1416 [r^2−(r−L)^ 2] where C = the number of clock hours at the limbus involved in the neovascular response, L = length of the longest neovascular pedicle from the limbus onto anterior cornea, and r = radius of the cornea. […]
Corneal micropockets were created with a modified von Graefe cataract knife in eyes of each […] NZ white rabbit. […] The area of neovascular response, vessel length, and clock hours of new blood vessels of the rabbits in each group were calculated according to the formula [55]. […]

Which results are given for Ac-LRKLRKRLLLRKLRKRLL-NH2 [apoEdp]?
50% cytotoxicity (CC50), HUVEC viability (HUVEC): about 103 µM; VEGF-induced angiogenesis in rabbit corneal micropocket [1]: significantly inhibited VEGF-induced angiogenesis
